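Tested at 5 concentrations; 48 h exposure; 96-well plates; endpoints linearly interpolated, else capped at highest concentration. GI50 = concentration required for 50% inhibition of growth. TGI marks complete inhibition of growth.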
Columns and labels:
Experiment in all cases: NCI-60 cell line screen, 48 h
[1] = test system: MDA-MB-468 breast
[2] = test system: SR leukemia
[3] = test system: IGROV1 ovarian
[4] = test system: HCT-116 colon
[5] = test system: HS 578T breast
[6] = test system: SN12C renal
[7] = test system: UO-31 renal
[8] = test system: T-47D breast
[9] = test system: DU-145 prostate
[10] = test system: CAKI-1 renal
[11] = test system: HL-60(TB) leukemia
[12] = test system: OVCAR-5 ovarian
[13] = test system: HOP-62 NSCLC
[14] = test system: KM12 colon
[15] = test system: MDA-MB-231 breast
[16] = test system: HCC-2998 colon
[17] = test system: SF-539 CNS
[18] = test system: SK-MEL-2 melanoma
[19] = test system: SW-620 colon
[20] = test system: OVCAR-4 ovarian
[21] = test system: 786-0 renal
[22] = test system: SF-295 CNS
[23] = test system: MCF7 breast
[24] = test system: MDA-MB-435
[25] = test system: TK-10 renal
[26] = test system: UACC-257 melanoma
[27] = test system: MALME-3M melanoma
[28] = test system: OVCAR-8 ovarian
[29] = test system: RPMI-8226 leukemia
[30] = test system: MOLT-4 leukemia
[31] = test system: U251 CNS
[32] = test system: NCI-H522 lung
[33] = test system: SNB-75 CNS
[34] = test system: CCRF-CEM leukemia
[35] = test system: HT29 colon
[36] = test system: SK-MEL-28 melanoma
[37] = test system: BT-549 breast
[38] = test system: ACHN renal
[39] = test system: SK-OV-3 ovarian
[40] = test system: EKVX NSCLC
[41] = test system: NCI-H460 lung
[42] = test system: A498 renal
[43] = test system: NCI-H226 lung
[44] = test system: HOP-92 NSCLC
[45] = test system: OVCAR-3 ovarian
[46] = test system: LOX IMVI melanoma
[47] = test system: HCT-15 colon
[48] = test system: NCI-H23 lung
[49] = test system: COLO 205 colon
[50] = test system: PC-3 prostate
[51] = test system: UACC-62 melanoma
[52] = test system: M14 melanoma
[53] = test system: SK-MEL-5 melanoma
[54] = test system: RXF 393 renal
[55] = test system: SNB-19 CNS
[56] = test system: SF-268 CNS
[57] = test system: K-562 leukemia
[58] = test system: A549 NSCLC

## COc1cccc(/C=C2\COc3ccc(O)c(O)c3C2=O)c1
[1]
  GI50: 1.15 µM
  TGI: 3.15 µM

## CN1CCN(Cc2ccc(NC(=O)c3cncc(C#Cc4cnc5ccc(O[C@H]6CCOC6)nn45)c3)cc2C(F)(F)F)CC1
[1]
  GI50: 0.75 µM
  TGI: 1.69 µM

## COc1cc(-c2nn(-c3ccc(NC(=O)NCCNS(=O)(=O)c4ccc(F)cc4)cc3)cc2-c2ccncc2)ccc1Cl
[1]
  GI50: 0.323 µM
  TGI: 1.28 µM

## COC(=O)c1c(C)c2n(c1C)C(=O)C(c1ccccc1)=C2
[1]
  GI50: 4.88 µM
  TGI: > 72.8 µM

## NC(=O)c1c(Br)n(C2OC(CO)C(O)C2O)c2ncnc(N)c12 (configuration not stated)
[1]
  GI50: 0.437 µM
  TGI: 2.36 µM

## COc1cc2c(cc1O)CC[C@@H]1[C@@H]2CC[C@]2(C)[C@@H](OCCCN(C)C)CC[C@@H]12
[1]
  GI50: 0.12 µM
  TGI: 0.3 µM

## COc1ccc(OC)c(/C=C/C(=O)N/N=C/c2ccccc2)c1
[1]
  GI50: 1.96 µM
  TGI: 6.47 µM

## C#C[C@@]1(O)[C@@H](CO)O[C@@H](n2cc(Br)c3c(N)ncnc32)[C@@H]1O
[1]
  GI50: 0.115 µM
  TGI: 0.352 µM

## CN1C[C@@H](c2ccc(Cl)cc2)[C@]2(NC(=S)N(c3ccc(F)c(Cl)c3)C2=O)[C@@]12C(=O)NC1C=CC(Cl)=C[C@H]12 (some centres not stated)
[1]
  GI50: 3.38 µM
  TGI: 12.9 µM

## O=C1CCC/C=C\C[C@H]2C=CC(=O)/C2=C/C[C@H](CCc2cccc(C(F)(F)F)c2)O1
[1]
  GI50: 1.69 µM
  TGI: 3.71 µM

## Nc1ccccc1NC(=O)c1ccc(CNC(=O)OCc2cccnc2)cc1
[1]
  GI50: 0.412 µM
  TGI: 2.05 µM

## CCn1nc(-c2ccc(C(=O)OC)cc2)nc2c(=O)n(C)c(=O)nc1-2
[1]
  GI50: 0.189 µM
  TGI: 0.477 µM

## ClC(Cl)c1nc(-c2ccccc2)n2nc(-c3ccccc3)cc2n1
[1]
  GI50: 0.287 µM
  TGI: 1.25 µM

## O=C1Nc2ccc(Cl)cc2/C1=C/c1cccc(OCc2ccccc2)c1
[2]
  GI50: 5.66 µM
  TGI: 21.8 µM
[3]
  GI50: 12.3 µM
  TGI: 61.2 µM
[4]
  GI50: 10.7 µM
  TGI: > 100 µM
[5]
  GI50: 16 µM
  TGI: 72.9 µM
[6]
  GI50: 20.5 µM
  TGI: 88.8 µM
[7]
  GI50: 7.91 µM
  TGI: > 100 µM
[8]
  GI50: 16.1 µM
  TGI: > 100 µM
[9]
  GI50: 17 µM
  TGI: 45.3 µM
[10]
  GI50: 10.8 µM
  TGI: 32 µM
[11]
  GI50: 13.3 µM
  TGI: 57.8 µM
[12]
  GI50: 27.5 µM
  TGI: > 100 µM
[13]
  GI50: 25.6 µM
  TGI: 79.8 µM
[14]
  GI50: 20.1 µM
  TGI: > 100 µM
[15]
  GI50: 15.3 µM
  TGI: 37.9 µM
[16]
  GI50: 41.2 µM
  TGI: > 100 µM
[17]
  GI50: 18.5 µM
  TGI: 48.6 µM
[18]
  GI50: 31.2 µM
  TGI: > 100 µM
[19]
  GI50: 19.9 µM
  TGI: 75.9 µM
[20]
  GI50: 11.8 µM
  TGI: 63.2 µM
[21]
  GI50: 14.1 µM
  TGI: 32.6 µM
[22]
  GI50: 37 µM
  TGI: > 100 µM
[23]
  GI50: 3.9 µM
  TGI: 75.1 µM
[24]
  GI50: 24 µM
  TGI: 98.8 µM
[25]
  GI50: 56.1 µM
  TGI: > 100 µM
[26]
  GI50: 53.8 µM
  TGI: > 100 µM
[27]
  GI50: 21.1 µM
  TGI: 64.7 µM
[28]
  GI50: 20.2 µM
  TGI: 61.8 µM
[29]
  GI50: 7.46 µM
  TGI: 36.7 µM
[30]
  GI50: 4.96 µM
  TGI: 23.6 µM
[31]
  GI50: 14.8 µM
  TGI: 55.4 µM
[32]
  GI50: 24 µM
  TGI: > 100 µM
[33]
  GI50: 16.7 µM
  TGI: 56 µM
[34]
  GI50: 11.2 µM
  TGI: 32.1 µM
[35]
  GI50: 37.8 µM
  TGI: > 100 µM
[36]
  GI50: 16.5 µM
  TGI: 44.3 µM
[37]
  GI50: 14.3 µM
  TGI: 66.1 µM
[38]
  GI50: 15 µM
  TGI: 37.3 µM
[39]
  GI50: 59 µM
  TGI: > 100 µM
[40]
  GI50: 20.5 µM
  TGI: > 100 µM
[41]
  GI50: 14 µM
  TGI: 37.9 µM
[1]
  GI50: 6.52 µM
  TGI: 67.5 µM
[42]
  GI50: 38 µM
  TGI: > 100 µM
[43]
  GI50: 14.1 µM
  TGI: 84.6 µM
[44]
  GI50: 2.16 µM
  TGI: 13.4 µM
[45]
  GI50: 12.4 µM
  TGI: 31.7 µM
[46]
  GI50: 10.2 µM
  TGI: 40.4 µM
[47]
  GI50: 9.4 µM
  TGI: 94.6 µM
[48]
  GI50: 22 µM
  TGI: > 100 µM
[49]
  GI50: 37.4 µM
  TGI: > 100 µM
[50]
  GI50: 14.9 µM
  TGI: 82 µM
[51]
  GI50: 8.87 µM
  TGI: 35.4 µM
[52]
  GI50: 19.5 µM
  TGI: > 100 µM
[53]
  GI50: 28.1 µM
  TGI: > 100 µM
[54]
  GI50: 18.4 µM
  TGI: 95.9 µM
[55]
  GI50: 17.9 µM
  TGI: 58.8 µM
[56]
  GI50: 14.6 µM
  TGI: 49.4 µM
[57]
  GI50: 11 µM
  TGI: 37.8 µM
[58]
  GI50: 18.3 µM
  TGI: > 100 µM

Reference: PubChem BioAssay (NCI)
